Data published in patent US10307413B2, “Tetrahydro- and dihydro-isoquinoline PRMT5 inhibitors and uses thereof” (Epizyme, Inc., priority 2013, dated 2019).

Assays:
Z-138 cell line = assay: Z-138 Proliferation Assay (Cell Titer Glo, 5 days); assay type: cell-based; conditions: Homo sapiens, 120 h; Z-138 cells, 5 days, Cell Titer Glo; read-out: Proliferation EC50
Method in brief: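 Viability via CellTiter-Glo luminescence (ATP) after 5-day incubation at 37 °C, 5% CO2. Compounds tested in triplicate, nine 3-fold steps, highest final concentration 20 μM in 0.2% DMSO; 50% inhibitory concentration by 4-parameter fit of normalized curves.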

PRMT5/MEP50 = PRMT5/MEP50 (Homo sapiens (Human), UniProt O14744); assay: PRMT5 Biochemical Assay (PRMT5/MEP50 enzyme assay on peptide substrate, 3H-SAM Flashplate); conditions: PRMT5 biochemical assay
Chain of PRMT5/MEP50 (O14744 other isoform, or with tags, fused parts or gaps): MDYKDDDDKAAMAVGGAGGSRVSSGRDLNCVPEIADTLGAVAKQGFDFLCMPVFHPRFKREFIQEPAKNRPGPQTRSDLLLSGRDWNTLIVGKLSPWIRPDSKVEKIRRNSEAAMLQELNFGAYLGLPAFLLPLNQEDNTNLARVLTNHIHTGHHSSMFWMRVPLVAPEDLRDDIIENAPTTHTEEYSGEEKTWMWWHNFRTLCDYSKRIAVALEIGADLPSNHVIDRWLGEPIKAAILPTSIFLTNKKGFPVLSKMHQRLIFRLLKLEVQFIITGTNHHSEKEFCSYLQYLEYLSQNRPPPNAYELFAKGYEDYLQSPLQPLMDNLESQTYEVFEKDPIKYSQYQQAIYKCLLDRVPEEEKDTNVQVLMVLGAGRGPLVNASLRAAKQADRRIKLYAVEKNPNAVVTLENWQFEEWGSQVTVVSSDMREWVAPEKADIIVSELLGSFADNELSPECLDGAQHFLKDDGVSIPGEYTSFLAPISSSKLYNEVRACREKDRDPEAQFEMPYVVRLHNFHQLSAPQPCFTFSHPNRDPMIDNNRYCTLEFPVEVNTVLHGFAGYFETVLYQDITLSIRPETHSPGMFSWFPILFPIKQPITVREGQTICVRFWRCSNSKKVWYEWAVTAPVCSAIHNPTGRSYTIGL
Chain of PRMT5/MEP50 (Q9BQA1 other isoform, or with tags, fused parts or gaps partner): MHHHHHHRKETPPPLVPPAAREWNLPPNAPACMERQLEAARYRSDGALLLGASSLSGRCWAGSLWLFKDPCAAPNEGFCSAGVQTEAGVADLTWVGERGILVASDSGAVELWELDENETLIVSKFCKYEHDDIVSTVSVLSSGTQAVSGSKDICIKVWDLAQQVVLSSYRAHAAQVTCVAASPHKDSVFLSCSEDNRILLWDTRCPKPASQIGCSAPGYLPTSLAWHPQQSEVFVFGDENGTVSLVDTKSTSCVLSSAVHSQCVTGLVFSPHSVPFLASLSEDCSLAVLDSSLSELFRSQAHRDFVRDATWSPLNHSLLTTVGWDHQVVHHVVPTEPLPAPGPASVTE
Method in brief: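 Radiometric methylation of a biotin-tagged H4(1-15) peptide by human PRMT5/MEP50 from baculovirus/Sf9, with ³H-SAM incorporation read on streptavidin Flashplates. Buffer: Bicine pH 7.6, TCEP, BSG, Tween20; compound preincubated 30 min at 25 °C; stopped with 600 µM final unlabeled SAM. DMSO and SAH controls; IC50 from fitted % inhibition.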

[1] = test system: symmetric di-methyl arginine in Z-138 cells; assay: Z-138 Methylation Assay (In Cell Western for symmetric di-methyl arginine and DNA content); assay type: cell-based; conditions: Homo sapiens, In Cell Western methylation, read-out: ICW EC50
Method in brief: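 In-cell western: symmetric di-methyl arginine signal ratioed to DRAQ5 DNA content after 96 h compound exposure of Z-138 cells seeded at 50,000 cells/mL.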

SMILES | EC50 (Z-138 cell line) [nM] | IC50 (PRMT5/MEP50) [nM] | EC50 [1] [nM]
C[C@H](N1CC(Nc2cc(C(=O)NC[C@H](O)CN3CCc4ccccc4C3)ncn2)C1)C(F)(F)F [Compound 445] | 1000 to 10000 | < 100 | < 100
C[C@@H](N1CC(Nc2cc(C(=O)NC[C@H](O)CN3CCc4ccccc4C3)ncn2)C1)C(F)(F)F [Compound 446] | 1000 to 10000 | < 100 | < 100
O=C(NC[C@H](O)CN1CCc2ccccc2C1)c1cc(NC2CNC2)nc(N2CCOCC2)n1 [Compound 447] | 1000 to 10000 | < 100 | < 100
CN(c1cc(C(=O)NC[C@H](O)CN2CCc3ccccc3C2)ncn1)C1COC1 [Compound 448] | > 20000 | < 100 | > 1000
CC(C)c1nc(NC2COC2)cc(C(=O)NC[C@H](O)CN2CCc3ccccc3C2)n1 [Compound 449] | 101 to 1000 | < 100 | < 100
CC(=O)N1CC(Nc2cc(C(=O)NC[C@H](O)CN3CCc4ccccc4C3)nc(C)n2)C1 [Compound 450] | 101 to 1000 | < 100 | < 100
O=C(NC[C@H](O)CN1CCc2ccccc2C1)c1cc(NC2COC2)nc(N2CCCC2)n1 [Compound 451] | 101 to 1000 | < 100 | < 100
CCc1nc(NC2COC2)cc(C(=O)NC[C@H](O)CN2CCc3ccccc3C2)n1 [Compound 452] | 101 to 1000 | < 100 | < 100
O=C(NC[C@H](O)CN1CCc2ccccc2C1)c1cc(NC2CNC2)nc(N2CCNCC2)n1 [Compound 453] | > 20000 | < 100 | > 1000
O=C(NC[C@H](O)CN1CCc2ccccc2C1)c1cc(NC2CNC2)nc(C(F)(F)F)n1 [Compound 456] | 101 to 1000 | < 100 | 101 to 1000
CC(=O)N1CC(Nc2cc(C(=O)NC[C@H](O)CN3CCc4ccccc4C3)nc(C(C)C)n2)C1 [Compound 457] | < 100 | < 100 | < 100
CCN(C)c1nc(NC2COC2)cc(C(=O)NC[C@H](O)CN2CCc3ccccc3C2)n1 [Compound 458] | < 100 | < 100 | < 100
CCCN(C)c1nc(NC2COC2)cc(C(=O)NC[C@H](O)CN2CCc3ccccc3C2)n1 [Compound 459] | < 100 | < 100 | < 100
COCCN(C)c1nc(NC2COC2)cc(C(=O)NC[C@H](O)CN2CCc3ccccc3C2)n1 [Compound 460] | < 100 | < 100 | < 100
O=C(NC[C@H](O)CN1CCc2ccccc2C1)c1cc(NC2COC2)nc(N2CCNCC2)n1 [Compound 461] | < 100 | < 100 | < 100
CCC(=O)N1CCN(c2nc(NC3COC3)cc(C(=O)NC[C@H](O)CN3CCc4ccccc4C3)n2)CC1 [Compound 462] | < 100 | < 100 | < 100
CC(C)C(=O)N1CCN(c2nc(NC3COC3)cc(C(=O)NC[C@H](O)CN3CCc4ccccc4C3)n2)CC1 [Compound 463] | < 100 | < 100 | < 100
CC(C)Cc1nc(NC2COC2)cc(C(=O)NC[C@H](O)CN2CCc3ccccc3C2)n1 [Compound 464] | < 100 | < 100 | < 100
COc1nc(NC2COC2)cc(C(=O)NC[C@H](O)CN2CCc3ccccc3C2)n1 [Compound 465] | 101 to 1000 | < 100 | < 100
CCN1CCN(c2nc(NC3CNC3)cc(C(=O)NC[C@H](O)CN3CCc4ccccc4C3)n2)CC1 [Compound 466] | 1000 to 10000 | < 100 | 101 to 1000
CC(C)Oc1nc(NC2CNC2)cc(C(=O)NC[C@H](O)CN2CCc3ccccc3C2)n1 [Compound 467] | 101 to 1000 | < 100 | 101 to 1000

SMILES | EC50 (Z-138 cell line) [nM] | IC50 (PRMT5/MEP50) [nM] | EC50 [1] [nM]
CCCC(=O)N1CCC(Nc2cc(C(=O)NC[C@H](O)CN3CCc4ccccc4C3)ccn2)CC1 [Compound 468] | < 100 | < 100 | < 100
CC(C)C(=O)N1CCC(Nc2cc(C(=O)NC[C@H](O)CN3CCc4ccccc4C3)ccn2)CC1 [Compound 469] | < 100 | < 100 | < 100
CC(C)(C)C(=O)N1CCC(Nc2cc(C(=O)NC[C@H](O)CN3CCc4ccccc4C3)ccn2)CC1 [Compound 470] | < 100 | < 100 | < 100
CC(C)CC(=O)N1CCC(Nc2cc(C(=O)NC[C@H](O)CN3CCc4ccccc4C3)ccn2)CC1 [Compound 471] | < 100 | < 100 | < 100
O=C(NC[C@H](O)CN1CCc2ccccc2C1)c1ccnc(NC2CCN(C(=O)C3CC3)CC2)c1 [Compound 472] | < 100 | < 100 | < 100
O=C(NC[C@H](O)CN1CCc2ccccc2C1)C1=CC2=NC(CO)CN2C=N1 (stereo partly drawn) [Compound 473] | > 20000 | 101 to 1000 | > 1000
CC(=O)N1CC(Nc2cc(C(=O)NC[C@H](O)CN3CCc4ccccc4C3)nc(C(F)(F)F)n2)C1 [Compound 474] | 101 to 1000 | < 100 | < 100
CC(=O)N1CC(Oc2cc(C(=O)NC[C@H](O)CN3CCc4ccccc4C3)ncn2)C1 [Compound 475] | 101 to 1000 | < 100 | < 100
CNCCN(C)c1nc(NC2COC2)cc(C(=O)NC[C@H](O)CN2CCc3ccccc3C2)n1 [Compound 476] | 101 to 1000 | < 100 | < 100
CCN1CCN(c2nc(NC3COC3)cc(C(=O)NC[C@H](O)CN3CCc4ccccc4C3)n2)CC1 [Compound 477] | < 100 | < 100 | < 100
CC(C)N1CCN(c2nc(NC3COC3)cc(C(=O)NC[C@H](O)CN3CCc4ccccc4C3)n2)CC1 [Compound 478] | < 100 | < 100 | < 100
O=C(NC[C@H](O)CN1CCc2ccccc2C1)c1cc(NC2COC2)nc(C2CC2)n1 [Compound 480] | 101 to 1000 | < 100 | < 100
CN(CCN)c1nc(NC2CNC2)cc(C(=O)NC[C@H](O)CN2CCc3ccccc3C2)n1 [Compound 481] | 1000 to 10000 | < 100 | 101 to 1000
CNCCN(C)c1nc(NC2CNC2)cc(C(=O)NC[C@H](O)CN2CCc3ccccc3C2)n1 [Compound 482] | 1000 to 10000 | < 100 | 101 to 1000
CC(=O)N1CCN(c2nc(NC3CNC3)cc(C(=O)NC[C@H](O)CN3CCc4ccccc4C3)n2)CC1 [Compound 483] | 1000 to 10000 | < 100 | < 100
CCC(=O)N1CCN(c2nc(NC3CNC3)cc(C(=O)NC[C@H](O)CN3CCc4ccccc4C3)n2)CC1 [Compound 484] | 1000 to 10000 | < 100 | < 100
O=C(NC[C@H](O)CN1CCc2ccccc2C1)c1cc(NC2CNC2)nc(N2CCN(C(=O)C3CC3)CC2)n1 [Compound 485] | 1000 to 10000 | < 100 | 101 to 1000
CCOc1nc(NC2CNC2)cc(C(=O)NC[C@H](O)CN2CCc3ccccc3C2)n1 [Compound 486] | 1000 to 10000 | < 100 | 101 to 1000
CCc1nc(NC2CNC2)cc(C(=O)NC[C@H](O)CN2CCc3ccccc3C2)n1 [Compound 487] | 1000 to 10000 | < 100 | 101 to 1000
CCC(=O)N1CC(Nc2cc(C(=O)NC[C@H](O)CN3CCc4ccccc4C3)ccn2)C1 [Compound 488] | < 100 | < 100 | < 100
CC(C)C(=O)N1CC(Nc2cc(C(=O)NC[C@H](O)CN3CCc4ccccc4C3)ccn2)C1 [Compound 489] | < 100 | < 100 | < 100
